Measurements: patent US20170038387A1, “METHODS FOR TREATING CHRONIC LYMPHOCYTIC LEUKEMIA AND THE USE OF BIOMARKERS AS A PREDICTOR OF CLINICAL SENSITIVITY TO IMMUNOMODULATORY THERAPIES” (Celgene Corporation, priority 2015, published 2017)

What was measured:
[1] = system: CLL cell lines; assay: Thymidine incorporation assay (cell proliferation); type: cell-based
Method: After four days, cells were diluted 1:7 with fresh media, containing the same concentration of treatment compound. Three days later, ^3H-thymidine was added to label proliferating cells for 6-7 hours. Cells were then harvested onto filter plates for counting on a scintillation counter.

[2] = system: samples from CLL patients; assay: in vitro proliferation assays on samples from four groups of CLL patients; type: cell-based, human
Description: The samples used in this study were from four groups of CLL patients.

[3] = system: primary CLL samples; assay: TMT-tagging and mass-spectrometry profiling of relative protein abundance after compound exposure; type: cell-based, human
Description: Data import: Relative abundance (RA) data was imported into the R statistical programming environment v.3.1.2. Proteins with less than one spectral count in any of the three MS runs for each case scenario were filtered out and relative abundance was scale normalized to the same median by using normalizeBetweenArrays( ) function implemented in the limma package for Bioconductor (see Yang et al., Nucleic Acids Research, 30(4), e15 (2002)).
Comparative analysis: RA scores were log 2-transformed to perform direct comparison of compounds exposure versus DMSO control and a paired moderated t-test (see Smyth, Statistical Applications in Genetics and Molecular Biology, 3(1), article 3 (2004)) was performed by using lmfit( ) and eBayes( ) functions form limma package to test differential relative abundance between experimental conditions. For differential analysis across cases, the log-2 fold changes of replicates for two of the case scenarios were considered.
Linear regression analysis: Linear regression was modeled by using lm( ) function from the stats package. This function provided the correlation coefficients as well as the linear fitted model. Data were assessed for outliers detection within the linear model via the Studentized residuals method (implemented in outlierTest( ) function from car package) and deemed significant if their q-values were under a threshold of 0.05 (5%).
The proteins subjected to the analysis were those with more than one spectral count matched in three MS runs representing each case scenario. A total of 6114, 6070, 5982 and 5382 proteins were retained for each case scenario. Differential expression analysis was applied to the high and consistent coverage of 4594 proteins quantified across all case scenarios. FIGS. 2A-2D show distribution of normalized relative abundances for each replicate of the four case scenarios (Cases B1-B4). The standard deviation of each replicate is represented as a stair-plot line at the bottom of the boxplot. FIGS. 3A-3D show heatmaps representing correlations of log 2 fold-changes of protein levels post compound treatment as compared with DMSO across conditions for all case scenarios. Low correlation of log 2 fold-changes at 6 hours may be due to the alteration of a small subset of proteins at an early time point without strong general effects across the proteome. Stronger correlations at 24 hours can be linked to a higher proportion of proteins perturbed reflecting downstream changes upon compound exposure.

[4] = FIG. 5 heatmap, 10 μM, 24 hours, vs DMSO

With `Nc1cccc2c1CN(C1CCC(=O)NC1=O)C2=O` (centres unmarked) [lenalidomide, 1-oxo-2-(2,6-dioxopiperidin-3-yl)-4-aminoisoindoline, reference compound] the “responsiveness of cell lines to treatment” value (“responsiveness of cell lines” for short) ([1]; Bucket #1 (EHEB and I83-E95)) was “responsive to both compounds”, the “responsiveness of cell lines” value ([1]; Bucket #2 (Mec2, CII, and CI)) was “responsive to both compounds” and the “responsiveness of cell lines” value ([1]; Bucket #4 (HG3)) was “not responsive to either Compound A or lenalidomide”. For the same compound, the “effect on cell proliferation” value ([2]; samples from the fourth group of patients (Case B4)) was “neither Compound A nor lenalidomide had any effect on cell proliferation”, the “effect on cell proliferation” value ([2]; samples from the third group of patients (Case B3)) was “no effect on cell proliferation” and the “protein abundance levels of SELL, SNX20 and KLF13 upon exposure” value ([3]; 10 μM, 24 hours) was “not affected or slightly increased”. The “GZMB protein expression level upon exposure” value ([3]; Case B1) was “increased”, the “level of WIZ (widely-interspaced zinc-finger) upon exposure” value ([3]; Case B1) was “increased” and the “GZMB protein expression level upon exposure” value ([3]; Case B4) was “decreased”. The “levels of Group 4 proteins (6 proteins including IKZF3 and a second IKZF1 isoform) upon exposure” value [3, 4] was “mild effects” and the “protein abundance levels of Group 3 proteins (SMNX20, SELL, KLF13, WIZ, IKZF1, NFKBIE, TCF7 and IRF8) upon exposure” value [3, 4] was “do not change or increase”.
